# Results reported in US20210130291A1, “METHODS FOR TREATING DIABETES USING VDAC1 INHIBITORS” (THE NATIONAL INSTITUTE FOR BIOTECHNOLOGY IN THE NEGEV LTD., priority 2016, published 2021).
# What was measured:
# db/db mice [1] = assay: Oral (gavage) administration of VBIT-4 to db/db mice, blood glucose; format: in vivo, mouse
# Description: Next, the effect of orally administered VBIT-4 on blood glucose in db/db mice was examined. VBIT-4 at the indicated doses or vehicle was administered by gavage to db/db mice from the age of 6-11 weeks. Blood was sampled and […] once a week. Blood glucose was measured by a handheld device ContourXt (Bayer) using blood glucose strips.
# [2] = test system: VDAC1 expression in INS-1 cells; assay: VDAC1 expression in INS-1 cells cultured at 5 or 20 mM glucose; format: cell-based, rat; conditions: INS-1 cells cultured 72 h at 20 mM glucose; VDAC1ab 10 nM, metformin, AKOS, VBIT-4 20 μM each (FIG. 4l, 4m)
# Description: INS-1 832/13 cells (kindly donated by Dr. C. B. Newgaard, Duke University, USA) were cultured in RPMI-1640 containing 11.1 mM D-glucose and supplemented with 10% fetal bovine serum, 100 U/ml penicillin (Gibco), 100 µg/ml streptomycin (Gibco), 10 mM HEPES, 2 mM glutamine, 1 mM sodium pyruvate, and 50 µM β-mercaptoethanol (Sigma), at 37° C. in a humidified atmosphere containing 95% air and 5% CO2. For VDAC1 over-expression by VDAC1 plasmid (1 μg/ml) and VDAC2 down-regulation by and siRNA, INS1 832/13 cells were cultured to 60% confluence. To study the long-term effects (24-72 h) of high glucose (20 mM) (glucotoxicity) compared to basal glucose (5 mM), INS-1 832/13 cells were cultured with RPMI 1640 complete media (Ahmed, M., et al., 2010. Islets 2, 283-292) in the presence or absence of indicated agents and thereafter VDAC1 expression, cell viability and function was measured.
# Total RNA from handpicked mouse islets, human donor islets (Diabetic and non-diabetic) or INS1 832/13 cells were extracted using RNAeasy (Qiagen, Hilden, Germany). RNA ([…]) was used for cDNA synthesis with SuperScript (Invitrogen, Carlsbad, Calif., USA). Concentration and purity of total RNA was measured with a NanoDrop ND-1000 spectrophotometer (A260/A280>1.9 and A260/A230>1.4) (NanoDrop Technologies, Wilmington, Del.) and RNA Quality Indicator (RQI) higher than 8.0 (Experion Automated Electrophoresis, Bio-Rad, USA) was considered to be high-quality total RNA preparations. A 10 μl of reaction mixture with 20 ng cDNA, 5 μl TaqMan mastermix (Applied Biosystems, Foster City, Calif., USA), and 100 nM TagMan gene expression assay were run in a 7900HT Fast Real-Time System (Applied Biosystems). The qPCR was carried out as follows: 50° C. for 2 minutes, 95° C. for 10 minutes, 40 cycles of 95° C. for 15 seconds, and 60° C. for 1 minute. The amount of mRNA was calculated relative to the amount of housekeeping genes (GAPDH, PPIA or HPRT) mRNA in the same sample by the formula X0/R0=2CtR-CtX, where X0 is the original amount of mRNA for the gene of interest, R0 is the original amount of HPRT mRNA, CtR the Ct value for HPRT, and CtX the Ct value for the gene of interest. Primer sequences are provided upon request.
# db/db mice [3] = conditions: Cao K, et al. 2014; cited from earlier work
# TXNIP = conditions: insulin-secreting cells and endothelial cells (Shaked 2011; Li 2015); cited from earlier work
# human islet cells = assay: Cellular reductive capacity (MTS) in human islets; format: cell-based; conditions: VDAC1 antibody 10 nM
# Description: The reductive capacity of cells was measured either on INS-1 cells or dispersed human islet cells when the INS-1 cells or islets were subjected to 5 or 20 mM glucose for 72 h in the absence or presence of test agents or after down-regulation of VDAC1 and VDAC2 as described elsewhere (35, 40). Measurement of reductive capacity was performed using the MTS reagent kit according to the manufacturer's instructions (Promega). Apoptosis was measured with the Cell Death Kit (Roche Diagnostics), which quantifies the appearance of cytosolic nucleosomes.
# VDAC1 = VDAC1 (Rattus norvegicus, UniProt Q9Z2L0); assay: Channel conductance of VDAC1 reconstituted in planar lipid bilayer
# VDAC1, sequence (Q9Z2L0 whole entry): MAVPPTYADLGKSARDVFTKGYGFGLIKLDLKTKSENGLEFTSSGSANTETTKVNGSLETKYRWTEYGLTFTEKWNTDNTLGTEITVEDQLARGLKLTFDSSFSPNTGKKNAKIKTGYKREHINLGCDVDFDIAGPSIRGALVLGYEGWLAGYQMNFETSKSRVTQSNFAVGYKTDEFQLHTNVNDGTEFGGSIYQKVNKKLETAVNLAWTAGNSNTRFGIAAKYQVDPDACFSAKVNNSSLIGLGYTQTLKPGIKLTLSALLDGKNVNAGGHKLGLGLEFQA
# [4] = test system: islets of diabetic db/db mice; assay: ATP content, ATP release and GSIS in islets of diabetic db/db mice; format: cell-based, mouse
# Description: 5 weeks old db/db mice and control (C57/bl) (Janvier Laboratory, France), weighing 18-25 g, were used throughout the experiments. They were given a standard pellet diet (B&K) and tap water ad libitum. The experimental procedures were approved by the Ethics Committee for Animal Research at Lund University. Isolation of pancreatic islets was performed by retrograde injection of a collagenase solution via the bile-pancreatic duct and islets were then collected under a stereomicroscope at room temperature.
# Human pancreatic islets were collected under a stereomicroscope at room temperature and cultured at 5.5 or 20 mM glucose in the absence or presence of test agents for 72 h. Thereafter the islets were washed and preincubated for 30 min at 37° C. in Krebs Ringer bicarbonate buffer, pH 7.4, supplemented with N-2 hydroxyethylpiperazine-N′-2-ethanesulfonic acid (10 mM), 0.1% bovine serum albumin, and 1 mM glucose. Each incubation vial contained 12 islets in 1.0 ml KRB buffer solution and treated with 95% O2 and 5% CO2 to obtain constant pH and oxygenation. After preincubation, the buffer was changed to a medium containing either 1 mM or 16.7 mM glucose. The islets were then incubated for 1 h at 37° C. in a metabolic shaker (30 cycles per min). Immediately after incubation an aliquot of the medium was removed for analysis of insulin and the islets were incubated in acid-ethanol for insulin content determination by radioimmunoassay.
# ATP release from isolated mouse or human islets or from INS-1 cells after transfection with mitochondrial targeted VDAC1 (mtVDAC1) or plasma membrane targeted VDAC1 (plVDAC1) plasmids was determined using a luminometric assay kit according to manufacturer's recommendation (Biovision). After incubation of islets (50/vial) or INS-1 cells for 60 min, an aliquot of the media was removed for subsequent measurements of released ATP. Then the islets or INS-1 cells were washed 3 times and the lysates were used for measurements of ATP and protein contents followed the protocol provided by the vendor.
"conductance of VDAC1 reconstituted into a planar lipid bilayer (VDAC1; metformin 30 μM, 10-30 min after addition (FIG. 4g))",inhibition at 30 µM (VDAC1; read-out: inhibition of channel conductance),Compound,"blood glucose (db/db mice [1]; daily gavage for 5 weeks, age 6-11 weeks (FIG. 8))","reduction of blood glucose concentration (db/db mice [1]; gavage, 10 mg/Kg body weight, 5 weeks)",glucose evoked VDAC1 upregulation (total VDAC1 expression) [2],severity of hyperglycemia at onset of the disease (db/db mice [3]),TXNIP activation by high glucose concentrations (TXNIP),cellular reductive capacity (metabolism) in T2D islets (human islet cells; metformin 20 μM (FIG. 6h)),"cellular reductive capacity after culture at 5 mM glucose (human islet cells; human islets, metformin 20 μM (FIG. 6g))",insulin secretion in low glucose ([4]; islets from hyperglycemic db/db mice (FIG. 6c)),"cellular ATP levels ([4]; islets from hyperglycemic db/db mice, acute addition 1 h, VDAC1 antibody 10 nM, metformin 20 μM (FIG. 6a))","ATP release ([4]; islets from hyperglycemic db/db mice, acute addition 1 h, VDAC1 antibody 10 nM, metformin 20 μM (FIG. 6b))","insulin secretion at 16.7 mM glucose ([4]; islets from hyperglycemic db/db mice, compared to control (FIG. 6c))"
,,"O=C(CC(CO)N1CCN(c2ccc(OC(F)(F)F)cc2)CC1)Nc1ccc(Cl)cc1 (racemic) [VBIT-4, N-(4-chlorophenyl)-4-hydroxy-3-(4-(4-(trifluoromethoxy)phenyl)-piperazin-1-yl)butanamide]",reduced blood glucose,the reduction was significant along the entire trail period,abrogated the glucose evoked VDAC1 upregulation,,,,,,,,
blocks conductance,50%,CN(C)C(=N)N=C(N)N [metformin],,,abrogated the glucose evoked VDAC1 upregulation,attenuates the severity of hyperglycemia,inhibits TXNIP activation,markedly improved metabolism,no effect,no effect,increased its cellular levels,reduced ATP release,increased insulin secretion
